Results as given in patent publication US20250241918A1, “NOVEL USE OF PYRAZOLOPYRIMIDINE COMPOUND” (HEFEI YOUYUAN PHARMACEUTICAL CO., LTD., priority 2022, published 2025).

Legend:
[1] = test system: rat colitis model induced by rectal administration of DNBS; experiment: Rat colitis induced by enema administration of DNBS; format: in vivo, Wister rats; conditions: 20 mg/kg p.o. QD, day -2 to 6 (G6); DNBS colitis rats; comparable to positive control group
Protocol: Sixty male Wister rats (purchased from Beijing Vital River Laboratory Animal Technology Co., Ltd.) were randomly divided into six groups, with 10 rats in each group: G1 was the blank control group; G2-G6 were the rat colitis model groups induced by rectal administration of DNBS solution (Tokyo Chemical Industry Co., Ltd., 50 mg/mL DNBS dissolved in 30% ethanol). Various animals were administered with drugs starting from two days before colitis induced by DNBS, and the administration schedules were shown in Table 3 below.
The induction of colitis was performed as follows. The rats were fasted for 40 h before administration, and were subcutaneously injected with 5% glucose saline ([…], once a day) during the fast. On day 0, the fasted rats were anesthetized using Zoletil (intraperitoneal injection, 25 mg/kg, purchased from a pharmacy) and xylazine (intraperitoneal injection, 5 mg/kg, purchased from Sigma-Aldrich). In G2-G6 model groups, colitis was induced in rats by inserting a catheter from the anus into the left colic flexure (about 8 cm away from the anus) and administrating DNBS (0.5 mL per rat) through enema administration. The G1 blank control group was administered with 30% ethanol via enema using the same method. In order to avoid the reflux of enema fluid, animals with enema administration were kept in a head-down position for 15 mins, and then maintained in the Trendelenburg position until waking up.
During the administration period, the body weights of rats in all groups were recorded every day. Six days later, the animals were euthanized and the colorectal tissues were collected. The ulcer area of the colorectum, as well as the degrees of adhesion, intestinal obstruction, ulceration, and intestinal wall thickening, were measured. The pathological condition of the intestinal wall was evaluated. The conditions of colon damage was evaluated according to Table 4.
If the ulcer is irregular in shape, it can be considered as a rectangle, and then the length and width were measured to evaluate the ulcer area. Ulcer area (cm^2)=ulcer length (cm)×ulcer width (cm).

[2] = test system: adjuvant-induced arthritis model rats; experiment: Adjuvant-induced rat arthritis model; format: in vivo, Sprague-Dawley (SD) rats; conditions: Day 21
Protocol: Experimental animals: Fifty male Sprague-Dawley (SD) rats weighing 180+20 g (provided by Qinglongshan Animal Breeding Center, license number SCXK(Su) 2017-0001) were fed with conventional pellet food (Jiangsu Xietong Biology Co., Ltd.) and housed in a clean animal facility. The rats were housed under a 12 h dark/12 h light cycle with free access to food and water. The temperature was maintained between 20° C. to 26° C., while the relative humidity ranged from 40% to 70%. […] Each group of 10 animals was administered QD for a continuous period of 21 days. […]
Paw swelling measurement: 1) the volume of right hind paw for the rats in each group was measured and recorded using a plethysmometer for paw volume before administration, which was used as the baseline value before modeling; 2) the volume of the rats' paw was measured at the end of administration (Day 21), which was used as the secondary value; 3) the swelling volume of the rats' paw was calculated according to the following formula: […]
The arthritis index scores were determined as following: at the end of administration (Day 21), rats in each group were evaluated according to the scoring standard described in Table 5. […]

CN(C)CC(=O)N1CCC[C@@H](n2nc(-c3ccc(Oc4ccccc4)cc3)c3c(N)ncnc32)C1 [Compound 22, (R)-1-(3-(4-amino-(4-phenoxyphenyl)-1H-pyrazolo[3,4-d]pyrimidin-1-yl)piperidin-1-yl)-2-(dimethylamino) ethanone]
animal body weights vs G2 model group [1]: significantly lower than those for the G2 group
scores for the degrees of adhesion, intestinal obstruction, ulceration, intestinal wall thickening vs G2 model group [1]: significantly lower than those for the G2 group
ulcer areas of colorectal tissues vs G2 model group [1]: significantly lower than those for the G2 group
paw swelling ([2]; 10 mg/kg orally QD): significantly alleviated paw swelling
paw swelling ([2]; 30 mg/kg orally QD): significantly alleviated paw swelling
